The source of these data is US10786505B2, “Administration of NEDD8-activating enzyme inhibitor and chemotherapeutic agents” (Millennium Pharmaceuticals, Inc., priority 2013, dated 2020).

Each structure is given as a SMILES string.

What all share (type): in vivo, mice
In assay [1] the test system is PHTX249Pa xenograft model. The experiment in a line: Combination of gemcitabine and MLN4924 in PHTX249Pa xenograft model. The method, then:
(§1) The PHTX249 Pa pancreatic xenograft model was established from a patient-derived tumor collected during surgery from a person with pancreatic adenocarcinoma. […] Gemcitabine (Gemzar, Henry Schein, Inc, Pittsburgh Pa., and Myoderm Medical, Norristown, Pa.) is formulated in 0.9% saline and administered by intraperitoneal injection (IP) q3Dx4 (every 3 days for a total of 4 doses) at 2.5 mg/kg or 10 mg/kg, or by IV injection twice weekly (BIW) at 20 mg/kg IVU. […] Tumors are measured twice weekly using a vernier caliper. […] Tumor size and body weight are measured approximately twice a week for the duration of the study. […] Tumor growth continued to be monitored after the dosing period in some studies. […] Average tumor volume is reported as a function of time for selected groups of selected studies in Figures A, B, and C. Measurements from day 0 to 18, 21 or 22 are analyzed as specified in Tables 4-9. […] For each animal, the log tumor volume at day 0 is subtracted from the log tumor volume on the subsequent days. This difference vs. time is used to calculate an area under the curve (AUC) for each animal using the trapezoid rule. In instances when an animal in a treatment group is removed early from the study, the last observed tumor value is carried forward through all subsequent time points. […] The standard error of the synergy score is computed based on the variation in the AUC values among the animals. […] Otherwise, the combination is classified as antagonistic.

For assay [2], the system named is LU1143 xenograft model. The experiment in a line: Combination of docetaxel or carboplatin and MLN4924 in LU1143 xenograft model. Particulars: 45 mg/kg MLN4924 BID SC. The method, then:
(§2) Docetaxel (Henry Schein, Inc., Pittsburgh Pa., Qilu Pharmaceutical Co., Ltd., Jinan, Shandong, China, and Sanofi-Aventis) is formulated in 0.9% saline and administered by intravenous injection (IV) once weekly (QW) at 5 mg/kg or 10 mg/kg.
Carboplatin (CARBOplatin Injection, Hospira, Inc., Qilu Pharmaceutical Co., Ltd. Jinan, Shandong, China, and Teva Gry-Pharma GmbH, Ulm, Germany) is formulated in 0.9% saline and administered by IP injection once weekly (QW) at 50 mg/kg. The once weekly schedule is also described as every 7 days (Q7D).
(§3) Tumors are measured twice weekly using a vernier caliper. Tumor volumes are calculated using standard procedures (0.5×(length×width^2)). […] Tumor size and body weight are measured approximately twice a week for the duration of the study. Mice are euthanized when their tumor volume reached 10% of their body weight, or when the average tumor volume of a treatment or control group reached approximately 2000 mm^3. Tumor growth continued to be monitored after the dosing period in some studies. Average tumor volume is reported as a function of time for selected groups of selected studies in Figures A, B, and C.
Measurements from day 0 to 18, 21 or 22 are analyzed as specified in Tables 4-9. All tumor volumes have a value of 1 added to them before log10 transformation. For each animal, the log tumor volume at day 0 is subtracted from the log tumor volume on the subsequent days. This difference vs. time is used to calculate an area under the curve (AUC) for each animal using the trapezoid rule. […] The synergy score for the combination of agents A and B is defined as 100*(mean(AUCAB)−mean(AUCA)−mean(AUCB)+mean(AUCctl))/mean(AUCctl): where AUCAB, AUCA, AUCB, and AUCctl are the AUC values for animals in the combination group, the A group, the B group, and the control group, respectively. The standard error of the synergy score is computed based on the variation in the AUC values among the animals. […] If the P-value is above 0.05, then the combination is considered to be additive. […]

Assay [3] relates to NCI-H82 xenograft model. The assay is described as follows: Combination of cisplatin and MLN4924 in NCI-H82 xenograft model. The method, then: (§4) NCI-H69 or NCI-H82 small cell lung tumor fragments (30- to 40-mg) are implanted into the subcutaneous space in the area of the right flank of NCr nu/nu mice (7-10 weeks, Charles River Laboratories, Inc, Frederick Md. or Wilmington, Mass.) using a 12-gauge trocar.
as §3
(§5) Measurements from day 0 to 18, 21 or 22 are analyzed as specified in Tables 4-9. All tumor volumes have a value of 1 added to them before log10 transformation. For each animal, the log tumor volume at day 0 is subtracted from the log tumor volume on the subsequent days. This difference vs. time is used to calculate an area under the curve (AUC) for each animal using the trapezoid rule. […] The synergy score for the combination of agents A and B is defined as 100*(mean(AUCAB)−mean(AUCA)−mean(AUCB)+mean(AUCctl))/mean(AUCctl): where AUCAB, AUCA, AUCB, and AUCctl are the AUC values for animals in the combination group, the A group, the B group, and the control group, respectively. The standard error of the synergy score is computed based on the variation in the AUC values among the animals. […] If the P-value is above 0.05, then the combination is considered to be additive. If the P-value is below 0.05, and the synergy score is less than zero, then the combination is considered to be synergistic. […] Otherwise, the combination is classified as antagonistic.

Assay [4] deals with PHTX02B xenograft model. The experiment in a line: Combination of gemcitabine and MLN4924 in PHTX02B xenograft model. The method, then: as §1, with “PHTX02B breast” for “PHTX249 Pa pancreatic”, “invasive ductal carcinoma classified as triple negative breast cancer (ER-/PR-/Her2-) by IHC.” for “pancreatic adenocarcinoma.”
Assay [5] has as its system NCI-H69 xenograft model. The experiment in a line: Combination of cisplatin and MLN4924 in NCI-H69 xenograft model. The method, then: as §4, §3, §5
Assay [6] relates to PHTX02B breast xenograft model. The experiment in a line: Combination of docetaxel and MLN4924 in PHTX02B xenograft model. Particulars: for average tumor volume day 21: PHTX02B xenograft.
Source text: The PHTX02B breast xenograft model was established from a patient-derived tumor collected during surgery from a person with invasive ductal carcinoma classified as triple negative breast cancer (ER−/PR−/Her2−) by IHC. PHTX02B tumor fragments (approximately 2×2×3 mm^3) are implanted into the subcutaneous space in the right dorsal flank of female SCID-NOD mice (age 5-7 weeks, Jackson Laboratory, Bar Harbor, Me.) using a 13-gauge trocar.
as §2, §3, §5

Setting [7] is: 60 mg/kg MLN4924 BID Q2Dx3/week SC.

As for `NS(=O)(=O)OC[C@@H]1C[C@@H](n2ccc3c(N[C@H]4CCc5ccccc54)ncnc32)C[C@@H]1O` [MLN4924, ((1S,2S,4R)-4-(4-((1S)-2,3-dihydro-1H-inden-1-ylamino)-7H-pyrrolo[2,3-d]-pyrimidin-7-yl)-2-hydroxycyclopentyl)methyl sulfamate], in assay [1] (PHTX249Pa xenograft, 90 mg/kg MLN4924 BID BIW SC), the “average tumor volume day 18” value is on record as 1748.9 mm^3. Moreover, the “tumor growth compared to the control vehicle group (in words)” value in assay [1] (PHTX249 Pa xenograft, gemcitabine 20 mg/kg IV BIW, MLN4924 90 mg/kg SC BID BIW, single agents or their combination) was “did not show growth inhibition compared to the control vehicle group”. For the same molecule, the “average tumor volume day 21” value came out at 801.2 mm^3 in assay [2], 1110.9 mm^3 in assay [6] (30 mg/kg MLN4924 BID 5 on/5 off SC), 894.4 mm^3 in assay [6] (30 mg/kg MLN4924 BID SC) and 532.2 mm^3 in assay [6] (60 mg/kg MLN4924 BID 5 on/5 off SC). In addition, the “average tumor volume day 22” value in assay [3] (setting [7]) is 861.9 mm^3; in assay [3] (60 mg/kg MLN4924 BID Q3Dx2/week SC), 783.3 mm^3; in assay [4] (30 mg/kg MLN4924 BID SC), 647.4 mm^3; in assay [5] (45 mg/kg MLN4924 BID Q3Dx2/week SC), 438.5 mm^3; in assay [5] (setting [7]), 475.4 mm^3. The “tumor growth during the treatment period (in words)” value in assay [4] (FIG. 2, MLN4924 SC 30 mg/kg BID, gemcitabine 10 mg/kg IP q3dx4, single agents or their combination) was “inhibited tumor growth compared to the control vehicle group”; in assay [6] (PHTX02B breast xenograft, FIG. 1, MLN4924 SC 60 mg/kg BID 5 days on/5 days off, docetaxel 5 mg/kg IV QW, single agents or their combination) it was “inhibited tumor growth compared to the control vehicle group”.
